This note sets out measurements from patent US10897903B2, “Method for controlling PPO resistant weeds” (BASF SE, priority 2016, dated 2021).

In this test the test system is w.1 AMATA Amaranthus tamariscinus, common waterhemp, sensitive biotype. As to the kind of experiment: Greenhouse experiment, weed control of w.1 (Example 3). It counts as in vivo. The settings on record: for Weed control (%) w.1: greenhouse, sensitive biotype.

Regarding `C#CCN1C(=O)C(F)(F)Oc2cc(F)c(-n3c(=O)n(C)c(=S)n(C)c3=O)cc21` [I.a.35], for the setting “summary of Example 3 table”, the “activity in words on sensitive weed w.1” value was “very good activity”. Besides, the “Weed control (%) w.1” value (use rate 2 g/ha) was found to be 99% and the “Weed control (%) w.1” value (use rate 4 g/ha) is 100%.
